Results on 32 compounds are retold here after patent US20060128695A1, “Cyclic nucleotide phosphodiesterase inhibitors, preparation and uses” (NEURO3D, priority 2002, published 2006).

Molecules are shown by their SMILES. Where a name gives a salt, the structure may show the parent alone.

The first assay has as its target T1, PDE2 (Bos taurus, UniProt P14099).
T1 construct: PDE2 was prepared from bovine endothelial cells by the same methods; endogenous in cells; host or cells: bovine endothelial cells
T1 sequence (P14099 1-921): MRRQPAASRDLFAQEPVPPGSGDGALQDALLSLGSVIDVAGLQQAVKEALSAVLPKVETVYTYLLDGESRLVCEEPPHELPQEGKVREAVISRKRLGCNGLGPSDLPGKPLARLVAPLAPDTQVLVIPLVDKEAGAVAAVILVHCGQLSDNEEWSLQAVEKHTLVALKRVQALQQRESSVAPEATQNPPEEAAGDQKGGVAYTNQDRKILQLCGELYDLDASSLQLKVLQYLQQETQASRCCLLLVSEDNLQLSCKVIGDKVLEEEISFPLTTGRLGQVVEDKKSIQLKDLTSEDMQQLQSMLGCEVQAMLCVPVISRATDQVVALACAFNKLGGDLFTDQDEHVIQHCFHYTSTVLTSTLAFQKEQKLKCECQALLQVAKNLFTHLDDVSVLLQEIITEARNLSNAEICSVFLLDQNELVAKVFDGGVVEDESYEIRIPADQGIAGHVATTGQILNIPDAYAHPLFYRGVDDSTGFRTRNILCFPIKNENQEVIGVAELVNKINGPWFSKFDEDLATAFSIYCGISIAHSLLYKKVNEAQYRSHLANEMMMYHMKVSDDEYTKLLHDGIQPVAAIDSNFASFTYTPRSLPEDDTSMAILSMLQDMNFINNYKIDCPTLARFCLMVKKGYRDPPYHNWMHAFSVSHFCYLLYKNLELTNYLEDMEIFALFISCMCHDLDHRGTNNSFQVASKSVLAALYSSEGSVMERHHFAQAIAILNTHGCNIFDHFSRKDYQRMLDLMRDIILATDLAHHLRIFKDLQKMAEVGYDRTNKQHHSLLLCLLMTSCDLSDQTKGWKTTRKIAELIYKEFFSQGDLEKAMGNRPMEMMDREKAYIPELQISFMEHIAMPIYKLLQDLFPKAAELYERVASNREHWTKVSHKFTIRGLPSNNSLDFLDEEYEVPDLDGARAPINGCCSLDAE
Put plainly: Inhibition of PDE2, radioenzymatic phosphodiesterase assay. It is filed as biochemical, bovine.
Details: not given
As for `CCCCCCc1cccc(C2=NCC(=O)N(C)c3cc(OC)c(OC)cc32)c1` [Compound 6e, 7,8-dimethoxy-5-(3′-hexylphenyl)-1-N-methyl-1,3-dihydro-2H-1,4-benzodiazepin-2-one], it took 0.36 µM to reach half-maximal inhibition (IC50).

With `COc1cc2c(cc1OC)N(C)C(=O)CN=C2c1cccc(CCCCCC(N)=O)c1` [Compound 6i, 6-[3-(7,8-dimethoxy-1-methyl-2-oxo-2,3-dihydro-1H-1,4-benzodiazepin-5-yl)phenyl]hexanamide], 5.6 µM corresponded to half-maximal inhibition (IC50).

`COc1cc2c(cc1OC)N(C)C(=O)C(Cc1ccc(Cl)c(Cl)c1)N=C2c1cccc(C#N)c1` (centres unmarked) [Compound 7b, 3-[3-(3,4-dichlorobenzyl)-7,8-dimethoxy-1-methyl-2-oxo-2,3-dihydro-1H-1,4-benzodiazepin-5-yl]benzonitrile]: the half-maximal inhibitory concentration (IC50) (commonly the concentration that inhibits the measured activity by half) worked out at 5.5 µM.

Turning to `COc1cc2c(cc1OC)N(C)C(=O)CN=C2c1cccc(CN)c1` [Compound 8a, 5-[3-(aminomethyl)phenyl]-7,8-dimethoxy-1-methyl-1,3-dihydro-2H-1,4-benzodiazepin-2-one], half-maximal inhibition (IC50) required 9 µM.

The compound `COc1cc2c(cc1OC)N(C)C(=O)CN=C2c1cccc([N+](=O)[O-])c1` [Compound 17c, 7,8-dimethoxy-1-methyl-5-(3-nitrophenyl)-1,3-dihydro-1,4-benzodiazepin-2-one] showed an IC50 of 6.1 µM.

`COc1cc2c(cc1OC)N(C)C(=O)CN=C2c1cccc(C(C)=O)c1` [Compound 17e, 5-(3-acetylphenyl)-7,8-dimethoxy-1-methyl-1,3-dihydro-1,4-benzodiazepin-2-one] showed a concentration for half-maximal inhibition (IC50) of 6.7 µM. This IC50 and that of the compound before are within 1.5-fold of each other.

`COc1cc2c(cc1OC)N(C)C(=O)CN=C2c1cncc2ccccc12` [Compound 17f, 5-(4-isoquinolinyl)-7,8-dimethoxy-1-methyl-1,3-dihydro-1,4-benzodiazepin-2-one]: the IC50 was found to be 4.7 µM.

`COc1cc2c(cc1OC)N(C)C(=O)CN=C2c1ccc(Cl)c(Cl)c1` [Compound 17j, 5-(3,4-dichlorophenyl)-7,8-dimethoxy-1-methyl-1,3-dihydro-1,4-benzodiazepin-2-one] yielded a half-inhibitory concentration (IC50) of 7 µM.

`COc1cc2c(cc1OC)N(C)C(=O)CN=C2c1cccc(C)c1` [Compound 17k, 7,8-dimethoxy-1-methyl-5-(3-methylphenyl)-1,3-dihydro-1,4-benzodiazepin-2-one] gave an IC50 of 3.7 µM.

For the compound `COc1cc2c(cc1OC)N(C)C(=O)CN=C2c1cccc(C=O)c1` [Compound 17l, 5-(3-formylphenyl)-7,8-dimethoxy-1-methyl-1,3-dihydro-1,4-benzodiazepin-2-one], the IC50 is 5 µM.

For `COc1cc2c(cc1OC)N(C)C(=O)CN=C2c1cccc(CNCc2ccccc2)c1` [Compound 17m, 5-[3-(benzylaminomethyl)phenyl]-7,8-dimethoxy-1-methyl-1,3-dihydro-2H-1,4-benzodiazepin-2-one hydrochloride], it took 4.8 µM to reach half-maximal inhibition (IC50).

Consider `COc1cc2c(cc1OC)N(C)C(=O)CN=C2c1ccc2c(c1)OCO2` [Compound 17o, 7,8-dimethoxy-1-methyl-5-(3,4-methylenedioxyphenyl)-1,3-dihydro-2H-1,4-benzodiazepin-2-one], for which the IC50 amounted to 7.8 µM.

Take `COc1cc2c(c(Br)c1OC)C(c1cccc(C#N)c1)=NCC(=O)N2C` [Compound 24b, 3-(6-bromo-7,8-dimethoxy-1-methyl-2-oxo-2,3-dihydro-1H-1,4-benzodiazepin-5-yl)benzonitrile]: inhibition was half-maximal at 3.3 µM (IC50).

The assay is the same for the next values; noted with them: 10 μM test compound; PDE2 from bovine endothelial cells.
As to `CNC1=Nc2cc(OC)c(OC)cc2C(c2cccc(C#N)c2)=NC1` [Compound 12a, 3-(7,8-dimethoxy-2-methylamino-1,3-dihydro-3H-1,4-benzodiazepin-5-yl)benzonitrile], the “PDE2 percentage inhibition at 10 μM” value is on record as 16%.

The same assay, now with this note: 10 μM test compound; PDE2 from bovine endothelial cells; read-out: PDE2 percentage inhibition at 10 μM.
For `COc1cc2c(cc1OC)N(C)C(=O)CN=C2c1cccc(CNC(C)=O)c1` [Compound 8b, N-[3-(7,8-dimethoxy-1-methyl-2-oxo-2,3-dihydro-1H-1,4-benzodiazepin-5-yl)benzyl]acetamide], the inhibition (in general, how much of the control response was suppressed) at 10 µM amounted to 27.2%.

Regarding `COc1cc2c(cc1OC)N(C)C(=O)CN=C2c1cccc(C(N)=S)c1` [Compound 9a, 3-(7,8-dimethoxy-1-methyl-2-oxo-2,3-dihydro-1H-1,4-benzodiazepin-5-yl)thiobenzamide], the inhibition at 10 µM was determined as 85%.

Take `COc1cc2c(cc1OC)-n1ccnc1CN=C2c1cccc(C(N)=O)c1` [Compound 11b, 3-(8,9-dimethoxy-4H-imidazo[1,2-a] [1,4]benzodiazepin-6-yl)benzamide]: the inhibition at 10 µM worked out at 69.3%.

For `COc1cc2c(cc1OC)N(C)C(=O)CN=C2c1cccc(NC(C)=O)c1` [Compound 17n, N-[3-(7,8-dimethoxy-1-methyl-2-oxo-2,3-dihydro-1H-1,4-benzodiazepin-5-yl)phenyl]acetamide], the inhibition at 10 µM turned out to be 38%.

Still in this assay, the particulars now being: read-out: PDE2 percentage inhibition at 10 μM.
Take `CCN1C(=O)CN=C(c2cccc(C#CCOCc3ccccc3)c2)c2cc(OC)c(OC)cc21` [Compound 6k, 5-{3-[3-(benzyloxy)prop-1-ynyl]phenyl}-1-ethyl-7,8-dimethoxy-1,3-dihydro-2H-1,4-benzodiazepin-2-one]: the inhibition at 10 µM stood at 69.7%.

With `COc1cc2c(cc1OC)N(C)C(=O)CN=C2c1cccc(-c2cccc(C#N)c2)c1` [Compound 6l, 3′-(7,8-dimethoxy-1-methyl-2-oxo-2,3-dihydro-1H-1,4-benzodiazepin-5-yl)-1,1′-biphenyl-3-carbonitrile], the inhibition at 10 µM is 77.5%.

For `COc1cc2c(cc1OC)N(C)C(=O)CN=C2c1cccc(-c2cccc(C(N)=O)c2)c1` [Compound 6o, 3′-(7,8-dimethoxy-1-methyl-2-oxo-2,3-dihydro-1H-1,4-benzodiazepin-5-yl)-1,1′-biphenyl-3-carboxamide], the inhibition at 10 µM turned out to be 79.3%.

For the compound `COc1cc2c(cc1OC)N(C)C(=O)C(C)N=C2c1cccc(C(F)(F)F)c1` (centres unmarked) [Compound 7c, 7,8-dimethoxy-1,3-dimethyl-5-(3-trifluoromethylphenyl)-1,3-dihydro-2H-1,4-benzodiazepin-2-one], the inhibition at 10 µM came to 41%.

As for `COc1cc2c(cc1OC)N(C)C(=O)C(C)N=C2c1cccc(C#N)c1` (centres unmarked) [Compound 7d, 3-(7,8-dimethoxy-1,3-dimethyl-2-oxo-2,3-dihydro-1H-1,4-benzodiazepin-5-yl)benzonitrile], the inhibition at 10 µM was determined as 33.8%.

Turning to `COc1cc2c(cc1OC)N(C)C(=O)CN=C2c1cccc(-c2nc(-c3ccccc3)cs2)c1` [Compound 9b, 7,8-dimethoxy-1-methyl-5-[3-(4-phenyl-1,3-thiazol-2-yl)phenyl]-1,3-dihydro-2H-1,4-benzodiazepin-2-one], the inhibition at 10 µM was determined as 91.4%.

Take `COc1cc2c(cc1OC)C(c1cccc(C#N)c1)=NCC(=S)N2` [Compound 10d, 5-(3-cyanophenyl)-7,8-dimethoxy-1,3-dihydro-2H-1,4-benzodiazepin-2-thione]: the inhibition at 10 µM turned out to be 5.5%.

For `COc1cc2c(cc1OC)-n1ccnc1CN=C2c1cccc(C#N)c1` [Compound 11a, 3-(8,9-dimethoxy-4H-imidazo[1,2-a][1,4]benzodiazepin-6-yl)benzonitrile], the inhibition at 10 µM is 43%.

Take `CCCC1N=C(c2cccc(CO)c2)c2cc(OC)c(OC)cc2N(C)C1=O` (centres unmarked) [Compound 17h, 7,8-dimethoxy-5-(3-hydroxymethylphenyl)-1-methyl-3-propyl-1,3-dihydro-2H-1,4-benzodiazepin-2-one]: the inhibition at 10 µM was found to be 9.2%.

In the case of `COc1cc2c(cc1OC)N(C)C(=O)CN=C2c1cccc(N)c1` [Compound 17i, 5-(3-aminophenyl)-7,8-dimethoxy-1-methyl-1,3-dihydro-2H-1,4-benzodiazepin-2-one], the inhibition at 10 µM is 40%.

Turning to `COc1cc2c(cc1O)C(c1cccc(C#N)c1)=NCC(=O)N2` [Compound 22b, 3-(7-hydroxy-8-methoxy-2-oxo-2,3-dihydro-1H-1,4-benzodiazepin-5-yl)benzonitrile], the inhibition at 10 µM stood at 3.8%.

Consider `COc1cc2c(c(Br)c1O)C(c1cccc(C#N)c1)=NCC(=O)N2` [Compound 23b, 3-(6-bromo-7-hydroxy-8-methoxy-2-oxo-2,3-dihydro-1H-1,4-benzodiazepin-5-yl)benzonitrile], for which the inhibition at 10 µM is 20.1%.

Turning to `COc1cc2c(c(-c3ccccc3)c1OC)N(C)C(=O)CN=C2c1cccc(C#N)c1` [Compound 25a, 3-(7,8-dimethoxy-1-methyl-2-oxo-9-phenyl-2,3-dihydro-1H-1,4-benzodiazepin-5-yl)benzonitrile], the inhibition at 10 µM amounted to 0%.

`COc1cc2c(c(-c3ccccc3)c1OC)C(c1cccc(C#N)c1)=NCC(=O)N2C` [Compound 25b, 3-(7,8-dimethoxy-1-methyl-2-oxo-6-phenyl-2,3-dihydro-1H-1,4-benzodiazepin-5-yl)benzonitrile]: the inhibition at 10 µM stood at 22.9%.
